In US12667584B2, “Adenosine analog and its use in regulating the circadian clock” (NATIONAL INSTITUTE OF BIOLOGICAL SCIENCES, BEIJING, priority 2017, dated 2026):
“Also recorded” adds a separate entry of the source.

What was measured:
SCN culture slice = test: Ex vivo SCN slice culture from Per2::LUC mice, lumicycle; type: cell-based, mouse
Description: Tissue culture, drug treatment and Real-Time Monitoring of Circadian Oscillations: 8 week-old male mPer2 Luciferase knockin mice were Sacrificed cervical dislocation. Then wipe the skin and neck with cotton containing 70% ethanol in a sterile hood. For SCN slice culture, firstly remove the eye balls from the head with scissors, decapitate and cut the skin. Then open the skull, remove all bone until the olfactory bulbs can be seen, cut the optic nerve between the olfactory bulbs and the hemispheres, and finally harvest the whole brain into ice cold HBSS. Trim the brain in HBSS by removing the cerebellum and olfactory bulbs. Attach the brain to a sample tray by glue with the rostral tip upwards and ventral surface closest to the cutting blade, then immediately fill the tray with ice cold HBSS and set the tray to the vibratome. Set the vibratome frequency at the maximum and the speed to the medium. To reach the SCN area quickly, the start cutting off thicker sections should be 500-800 μm. Reduce the sections thicker to 100 μm when the optic chiasm becomes wider. When the two SCN nuclei start to appear, collect the slice with transfer pipettes and check slices under dissecting microscope. […] Data was extract and analyzed with LumiCycle Analysis software. […]

[1] = test system: Per2::LUC adult murine fibroblasts; test: Time-of-admission phase shift and amplitude in Per2::LUC adult murine fibroblasts; type: cell-based, mouse
Description: In above investigation, we found cordycepin (cordycepin-like nucleosides) shift the circadian phase, therefore it could be seemed as a circadian time giver (zeitgeiber). One prominent character of zeitgeiber is phase dependent function. Therefore, we further tested whether cordycepin also has the character. We use both transcriptional reporter (Per2:luc U2OS cells) translational reporter (Per2::LUC adult murine fibroblasts) model to investigate this character. The two reporter were seeded in 3.5 cm dish, transferred into lumicycle, and treated with cordycepin (100 μM in Per2:luc U2OS cells and 25 μM in Per2::LUC adult murine fibroblasts) every 2 hours from CT 0 to CT 24. 3 days after treatment and data analysis, we found in both reporter cells, cordycepin show highly “time-of-admission” dependent phase-change, 12 h phase shift when applied at CT10 and nearly 0 h phase shift when applied at CT 20 (F). […] To test this, we treated nearly damped Per2::LUC adult murine fibroblasts at CT 20 with DMSO or 25 μM cordycepin.

PER2 locus = test: ChIP-qPCR analysis for the PER2 locus; type: cell-based
Description: Human and mouse circadian oscillators are driven by interlocked transcriptional and translational feedback loop. Bmal1 and Clock are transcriptional factors and function as positive arm to active negative arm genes transcription, including Per and Cry. Per and Cry are transcriptional repressor and feedback repress Bmal1/Clock's transcription activity thereby inhibit its own transcription. […] We also confirmed this by ChIP-qPCR experiments. Cordycepin treatment 30 min immediately release Cry1/2 and Ruvbl2 binding at Per2 gene promoter.

[2] = test system: Per2-Luc reporter U2OS cells (D15); test: Circadian phase shift cell assay in D15 cells, 384 well plate, Tecan, with or without pentostatin; type: cell-based, human

## Nc1ncnc2c1ncn2[C@@H]1O[C@H](CO)C[C@H]1O [Cordycepin, 3′-deoxy-adenosine]
SCN culture slice
  clock phase of SCN slice: significant phase-shift with lower amplitude; also recorded: totally antiphase
[1]; 25 μM applied at CT10
  phase shift: 12 h
[1]; 25 μM applied at CT 20
  phase shift: ~0 h
[1]; 25 μM at CT 20, nearly damped fibroblasts
  amplitude: increase the amplitude
PER2 locus
  binding of BMAL1 at PER2 locus: remained unchanged
  binding of CRY2/RUVBL2 at PER2 locus: released
[2]; pentostatin containing medium (5 μg/ml)
  concentration of eliciting 12 h phase shift (potency): 200 nM
[2]; pentostatin containing medium (5 μg/ml), listed as cordycepin
  concentration of eliciting 12 h phase shift (potency): 180 nM
[2]; without pentostatin
  concentration of eliciting 12 h phase shift (potency): 25000 nM
